Results published in US20120302490A1, “Bleach Catalyst Compounds, Method For The Production Thereof And Use Thereof” (CLARIANT FINANCE (BVI) LIMITED, priority 2009, published 2012).

Assay: Water absorption (hygroscopicity) of the solid upon storage
Format: physicochemical
Protocol: Tri-μ-oxobis[(1,4,7-trimethyl-1,4,7-triazacyclononane)manganese(IV)]dichloride is prepared analogously to comparative example 1 and isolated in pure form as a red-brown powder. 4.7 g (8 mmol) thereof are dissolved in 50 ml of water and admixed with 3.1 g (16 mmol) of toluene-4-sulfonic acid sodium salt (Merck). After-stirring is carried out for 1 hour at room temperature, followed by evaporation to dryness on a rotary evaporator.
Analogously to comparative example 1, an aqueous solution of 0.2 mol of tri-μ-oxobis[(1,4,7-trimethyl-1,4,7-triazacyclononane)manganese(IV)]dichloride in water is prepared and freed from manganese oxides/hydroxides. The salts contained as a result of the reaction (sodium chloride) remain in the solution. At 25° C., 0.4 mol (77.6 g) of solid toluene-4-sulfonic acid sodium salt (Merck) is added and the mixture is after-stirred for 30 minutes. The clear dark red solution is then evaporated to dryness. Drying in a vacuum drying cabinet gives a crystalline red-violet solid in 92.7% yield, a mixture of tri-μ-oxobis[(1,4,7-trimethyl-1,4,7-triaza-cyclononane)manganese(IV)]dichloride, sodium toluenesulfonate and sodium chloride.
The procedure is in accordance with example 2 but adding sodium cumenesulfonate instead of the sodium toluene-4-sulfonate (equimolar exchange of sodium toluene-4-sulfonate for sodium cumenesulfonate). Evaporation at 50° C. gives a red-brown solid which, after 5 days, absorbs 7.1% by weight of water and in so doing becomes lumpy.
4.4 g (7.5 mmol) of isolated tri-μ-oxobis[(1,4,7-trimethyl-1,4,7-triazacyclo-nonane)manganese(IV)]dichloride according to comparative example 1 are dissolved in 50 ml of water, and 4.3 g (15 mmol) of sodium dodecylsulfate are added. The mixture is after-stirred for 1 hour at room temperature and then evaporated to dryness on a rotary evaporator. This gives 8.7 g of crystalline red solid which, after storage for 5 days at room temperature, absorbs 8.7% by weight of water and in so doing becomes lumpy.

CN1CCN(C)CCN(C)CC1.CN1CCN(C)CCN(C)CC1.[Cl-].[Cl-].[O]1[Mn+]2[O][Mn+]1[O]2 [compound 1, tri-μ-oxobis[(1,4,7-trimethyl-1,4,7-triazacyclononane)-manganese(IV)]dichloride]
hygroscopicity of isolated powder (as isolated, red-brown powder): strongly hygroscopic
physical state after storage (open dish, room temperature, 24 hours): becomes liquid
water absorbed upon storage (open dish, room temperature, over the course of 24 hours): > 17 % by weight
